Test results as given in US20260226493A1, “HERBICIDE RESISTANT PLANTS” (SYNGENTA CROP PROTECTION AG, priority 2023, published 2026).

Columns and labels:
Assay in all cases: BIO3-BIO1 mutant enzyme activity in the presence of herbicide, percentage inhibition (fluorometric DAPA assay)
Format in all cases: biochemical
Conditions in all cases: read-out: percentage inhibition
[1] = target: T1, Arabidopsis thaliana BIO3-BIO1 (BioDA) mutants (Arabidopsis thaliana, UniProt B0F481, W391M)
T1 construct: with the predicted N-terminal mitochondrial transit peptide removed; 6xHis-tag (N); thrombin cleavage site (N); made in house; host or cells: E. coli BL21 (DE3) bioA
T1 sequence (B0F481 23-833 W391M): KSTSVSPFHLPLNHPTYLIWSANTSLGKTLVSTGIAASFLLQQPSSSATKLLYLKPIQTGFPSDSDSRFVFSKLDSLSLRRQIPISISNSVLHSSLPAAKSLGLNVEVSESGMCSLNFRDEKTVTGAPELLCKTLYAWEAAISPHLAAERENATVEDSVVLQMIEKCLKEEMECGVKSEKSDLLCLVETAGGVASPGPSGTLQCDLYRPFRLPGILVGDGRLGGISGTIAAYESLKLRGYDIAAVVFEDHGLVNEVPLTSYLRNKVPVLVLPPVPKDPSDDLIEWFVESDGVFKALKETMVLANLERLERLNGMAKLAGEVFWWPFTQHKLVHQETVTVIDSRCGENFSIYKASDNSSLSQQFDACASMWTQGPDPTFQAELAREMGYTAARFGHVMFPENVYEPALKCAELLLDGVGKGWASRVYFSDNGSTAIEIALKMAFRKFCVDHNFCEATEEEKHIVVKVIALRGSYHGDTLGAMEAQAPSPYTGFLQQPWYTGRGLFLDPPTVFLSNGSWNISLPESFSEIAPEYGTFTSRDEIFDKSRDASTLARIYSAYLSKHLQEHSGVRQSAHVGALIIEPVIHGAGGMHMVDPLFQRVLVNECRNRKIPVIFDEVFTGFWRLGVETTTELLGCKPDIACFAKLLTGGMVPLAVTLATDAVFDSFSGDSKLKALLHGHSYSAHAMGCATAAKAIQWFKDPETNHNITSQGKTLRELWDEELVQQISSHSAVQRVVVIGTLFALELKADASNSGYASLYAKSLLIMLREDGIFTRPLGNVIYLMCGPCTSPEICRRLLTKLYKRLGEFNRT
Method in brief: (§1)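 His-tagged Arabidopsis BIO3-BIO1 mutants, expressed in E. coli and purified by IMAC and SEC, were preincubated at 50 nM with herbicide for 10 min at 20 °C in EPPS pH 8.6 with pyridoxal phosphate. Reaction with 100 μM spermidine and 20 μM KAPA ran 75 min at 20 °C; DAPA was derivatised with o-phthalaldehyde and read at ex 410/em 470 nm. […].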

[2] = target: T2, Arabidopsis thaliana BIO3-BIO1 (BioDA) mutants (Arabidopsis thaliana, UniProt B0F481, S509H)
T2 construct: with the predicted N-terminal mitochondrial transit peptide removed; 6xHis-tag (N); thrombin cleavage site (N); made in house; host or cells: E. coli BL21 (DE3) bioA
T2 sequence (B0F481 23-833 S509H): as the sequence (B0F481 23-833 W391M) above, with M369W, S487H counted along it
Method in brief: as §1

[3] = target: T3, Arabidopsis thaliana BIO3-BIO1 (BioDA) mutants (Arabidopsis thaliana, UniProt B0F481, T512N)
T3 construct: with the predicted N-terminal mitochondrial transit peptide removed; 6xHis-tag (N); thrombin cleavage site (N); made in house; host or cells: E. coli BL21 (DE3) bioA
T3 sequence (B0F481 23-833 T512N): as the sequence (B0F481 23-833 W391M) above, with M369W, T490N counted along it
Method in brief: as §1

[4] = target: T4, Arabidopsis thaliana BIO3-BIO1 (BioDA) mutants (Arabidopsis thaliana, UniProt B0F481, F348K)
T4 construct: with the predicted N-terminal mitochondrial transit peptide removed; 6xHis-tag (N); thrombin cleavage site (N); made in house; host or cells: E. coli BL21 (DE3) bioA
T4 sequence (B0F481 23-833 F348K): as the sequence (B0F481 23-833 W391M) above, with F326K, M369W counted along it
Method in brief: as §1

[5] = target: T5, Arabidopsis thaliana BIO3-BIO1 (BioDA) mutants (Arabidopsis thaliana, UniProt B0F481, A609N)
T5 construct: with the predicted N-terminal mitochondrial transit peptide removed; 6xHis-tag (N); thrombin cleavage site (N); made in house; host or cells: E. coli BL21 (DE3) bioA
T5 sequence (B0F481 23-833 A609N): as the sequence (B0F481 23-833 W391M) above, with M369W, A587N counted along it
Method in brief: as §1

[6] = target: T6, Arabidopsis thaliana BIO3-BIO1 (BioDA) mutants (Arabidopsis thaliana, UniProt B0F481, Q516C)
T6 construct: with the predicted N-terminal mitochondrial transit peptide removed; 6xHis-tag (N); thrombin cleavage site (N); made in house; host or cells: E. coli BL21 (DE3) bioA
T6 sequence (B0F481 23-833 Q516C): as the sequence (B0F481 23-833 W391M) above, with M369W, Q494C counted along it
Method in brief: as §1

[7] = target: T7, Arabidopsis thaliana BIO3-BIO1 (BioDA) mutants (Arabidopsis thaliana, UniProt B0F481, Q350S)
T7 construct: with the predicted N-terminal mitochondrial transit peptide removed; 6xHis-tag (N); thrombin cleavage site (N); made in house; host or cells: E. coli BL21 (DE3) bioA
T7 sequence (B0F481 23-833 Q350S): as the sequence (B0F481 23-833 W391M) above, with Q328S, M369W counted along it
Method in brief: as §1

[8] = target: T8, Arabidopsis thaliana BIO3-BIO1 (BioDA) mutants (Arabidopsis thaliana, UniProt B0F481, S509C)
T8 construct: with the predicted N-terminal mitochondrial transit peptide removed; 6xHis-tag (N); thrombin cleavage site (N); made in house; host or cells: E. coli BL21 (DE3) bioA
T8 sequence (B0F481 23-833 S509C): as the sequence (B0F481 23-833 W391M) above, with M369W, S487C counted along it
Method in brief: as §1

[9] = target: T9, Arabidopsis thaliana BIO3-BIO1 (BioDA) mutants (Arabidopsis thaliana, UniProt B0F481, T512C)
T9 construct: with the predicted N-terminal mitochondrial transit peptide removed; 6xHis-tag (N); thrombin cleavage site (N); made in house; host or cells: E. coli BL21 (DE3) bioA
T9 sequence (B0F481 23-833 T512C): as the sequence (B0F481 23-833 W391M) above, with M369W, T490C counted along it
Method in brief: as §1

[10] = target: T10, Arabidopsis thaliana BIO3-BIO1 (BioDA) mutants (Arabidopsis thaliana, UniProt B0F481, R790C)
T10 construct: with the predicted N-terminal mitochondrial transit peptide removed; 6xHis-tag (N); thrombin cleavage site (N); made in house; host or cells: E. coli BL21 (DE3) bioA
T10 sequence (B0F481 23-833 R790C): as the sequence (B0F481 23-833 W391M) above, with M369W, R768C counted along it
Method in brief: as §1

[11] = target: T11, Arabidopsis thaliana BIO3-BIO1 (BioDA) mutants (Arabidopsis thaliana, UniProt B0F481, T512G)
T11 construct: with the predicted N-terminal mitochondrial transit peptide removed; 6xHis-tag (N); thrombin cleavage site (N); made in house; host or cells: E. coli BL21 (DE3) bioA
T11 sequence (B0F481 23-833 T512G): as the sequence (B0F481 23-833 W391M) above, with M369W, T490G counted along it
Method in brief: as §1

[12] = target: T12, Arabidopsis thaliana BIO3-BIO1 (BioDA) mutants (Arabidopsis thaliana, UniProt B0F481, R756K)
T12 construct: with the predicted N-terminal mitochondrial transit peptide removed; 6xHis-tag (N); thrombin cleavage site (N); made in house; host or cells: E. coli BL21 (DE3) bioA
T12 sequence (B0F481 23-833 R756K): as the sequence (B0F481 23-833 W391M) above, with M369W, R734K counted along it
Method in brief: as §1

Row | SMILES | inhibition at 0.2 µM [1] [%] | inhibition at 1 µM [1] [%] | inhibition at 5 µM [1] [%] | inhibition at 0.2 µM [2] [%] | inhibition at 1 µM [2] [%] | inhibition at 5 µM [2] [%] | inhibition at 0.2 µM [3] [%] | inhibition at 1 µM [3] [%] | inhibition at 5 µM [3] [%] | inhibition at 0.2 µM [4] [%] | inhibition at 1 µM [4] [%] | inhibition at 5 µM [4] [%] | inhibition at 1 µM [5] [%] | inhibition at 1 µM [6] [%] | inhibition at 1 µM [7] [%] | inhibition at 1 µM [8] [%] | inhibition at 1 µM [9] [%] | inhibition at 1 µM [10] [%] | inhibition at 1 µM [11] [%] | inhibition at 1 µM [12] [%] | other results
1 | CCn1c(-c2ccc(Cl)c(Cl)c2)c(C(=O)O)c(=O)c2cc(F)ccc21 [Compound M, 2-(3,4-dichlorophenyl)-1-ethyl-6-fluoro-4-oxo-quinoline-3-carboxylic acid] | 27 | 37 | 84 | 23 | 82 | 98 | 27 | 74 | 93 | 0 | 1 | 24 | 49 | 88 | 22 | 53 | 79 | 9 | 39 | 36 | inhibition at 0.2 µM [5]: 44%; inhibition at 5 µM [5]: 62%; inhibition at 0.2 µM [6]: 64%; inhibition at 5 µM [6]: 97%; inhibition at 0.2 µM [7]: 4%; inhibition at 5 µM [7]: 44%; inhibition at 0.2 µM [8]: 21%; inhibition at 5 µM [8]: 78%; inhibition at 0.2 µM [9]: 27%; inhibition at 5 µM [9]: 95%; inhibition at 0.2 µM [10]: 0%; inhibition at 5 µM [10]: 49%; inhibition at 0.2 µM [11]: 9%; inhibition at 5 µM [11]: 77%; inhibition at 0.2 µM [12]: 10%; inhibition at 5 µM [12]: 71%
2 | CCn1c(C)c(-c2ccc(F)cc2F)c(=O)c(C(=O)O)c1-c1ccc(Cl)c(Cl)c1 [Compound C, 2-(3,4-dichlorophenyl)-5-(2,4-difluorophenyl)-1-ethyl-6-methyl-4-oxo-pyridine-3-carboxylic acid] | 39 | 24 | 63 | 20 | 75 | 98 | 29 | 74 | 93 | 0 | 11 | 15 | 36 | 95 | 35 | 65 | 83 | 11 | 57 | 42 | inhibition at 0.2 µM [5]: 45%; inhibition at 5 µM [5]: 53%; inhibition at 0.2 µM [6]: 74%; inhibition at 5 µM [6]: 99%; inhibition at 0.2 µM [7]: 2%; inhibition at 5 µM [7]: 66%; inhibition at 0.2 µM [8]: 30%; inhibition at 5 µM [8]: 88%; inhibition at 0.2 µM [9]: 22%; inhibition at 5 µM [9]: 97%; inhibition at 0.2 µM [10]: 0%; inhibition at 5 µM [10]: 62%; inhibition at 0.2 µM [11]: 17%; inhibition at 5 µM [11]: 92%; inhibition at 0.2 µM [12]: 6%; inhibition at 5 µM [12]: 80%
3 | CCOC(=O)c1nn(-c2ccc3c(c2)OC(F)(F)C(F)(F)O3)c2cccc(C(C)=O)c2c1=O [Compound A, ethyl 5-acetyl-4-oxo-1-(2,2,3,3-tetrafluoro-1,4-benzodioxin-6-yl)cinnoline-3-carboxylate] |  | 85 |  |  | 0 |  |  | 21 |  |  | 11 |  | 78 | 83 | 42 | 0 | 50 | 2 | 5 | 33 | 
4 | CCn1c(Cn2ccc(C(F)(F)F)n2)cc(=O)c(C(=O)O)c1-c1ccc(Cl)c(Cl)c1 [Compound L, 2-(3,4-dichlorophenyl)-1-ethyl-4-oxo-6-[[3-(trifluoromethyl)pyrazol-1-yl]methyl]pyridine-3-carboxylic acid] |  |  |  |  |  |  |  |  |  |  |  |  |  |  |  |  |  |  |  |  | inhibition at 0.01 µM [4]: 0%; inhibition at 0.075 µM [4]: 2%; inhibition at 0.5 µM [4]: 22%; inhibition at 0.01 µM [5]: 83%; inhibition at 0.075 µM [5]: 83%; inhibition at 0.5 µM [5]: 85%; inhibition at 0.01 µM [6]: 44%; inhibition at 0.075 µM [6]: 77%; inhibition at 0.5 µM [6]: 95%; inhibition at 0.01 µM [7]: 11%; inhibition at 0.075 µM [7]: 38%; inhibition at 0.5 µM [7]: 59%
